Reference: the CheMixHub drug solubility set

Assay: xn = mol fraction of the nth substance listed, in the solute-free solvent

CC(=O)N1CCN(c2ccc(OCC3COC(Cn4ccnc4)(c4ccc(Cl)cc4Cl)O3)cc2)CC1 (configuration not stated) + CC#N + O
solubility (g/100 g solution)
Conditions	x2 = 0.04651	x2 = 0.0989	x2 = 0.1583	x2 = 0.2264	x2 = 0.3051	x2 = 0.397	x2 = 0.506	x2 = 0.6372	x2 = 0.798
293.15 K	0.0181	0.108	0.587	2.22	5.12	9.21	11.9	10	4.67
298.15 K	0.0214	0.122	0.681	2.63	6.07	10.5	13	11.2	5.65
303.15 K	0.024	0.137	0.794	2.95	6.89	11.7	14.2	12.5	6.84
308.15 K	0.0263	0.157	0.888	3.36	7.88	12.9	15.4	13.6	7.71
313.15 K	0.0283	0.177	0.992	3.72	8.81	13.8	16.5	14.9	8.58

c1ccc2[nH]c(-c3cscn3)nc2c1 + CC#N + O
solubility (g/100 g solution)
Conditions	283.15 K	288.15 K	293.15 K	298.15 K	303.15 K	308.15 K	313.15 K	318.15 K	323.15 K
x2 = 0.04651	0.00121	0.00153	0.00195	0.00251	0.00312	0.00391	0.00486	0.00604	0.00759
x2 = 0.0989	0.00381	0.0048	0.0062	0.00795	0.00993	0.0122	0.0152	0.0184	0.0223
x2 = 0.1583	0.00804	0.0102	0.013	0.0163	0.0204	0.0251	0.0307	0.0373	0.0446
x2 = 0.2264	0.0137	0.0175	0.0219	0.027	0.0332	0.0403	0.0487	0.0587	0.0699
x2 = 0.3051	0.0203	0.0246	0.0311	0.0385	0.0467	0.0564	0.0675	0.0804	0.0944
x2 = 0.397	0.0272	0.0332	0.0403	0.049	0.0593	0.0713	0.0845	0.1	0.118
x2 = 0.506	0.0343	0.0409	0.0505	0.0604	0.0718	0.0849	0.1	0.121	0.141
x2 = 0.6372	0.0418	0.0499	0.0602	0.0732	0.0874	0.103	0.123	0.145	0.168
x2 = 0.798	0.0476	0.0573	0.0693	0.0823	0.0998	0.118	0.14	0.163	0.188

Nc1ccc(Oc2ccc(N)cc2)cc1 + CC(=O)N(C)C + CCO
solubility (g/100 g solution)
Conditions	293.15 K	298.15 K	303.15 K	308.15 K	313.15 K	318.15 K	323.15 K	328.15 K	333.15 K
x2 = 0.0555	0.741	0.782	0.905	1.15	1.39	1.68	1.96	2.28	2.64
x2 = 0.1168	1.32	1.4	1.59	1.94	2.32	2.66	3	3.15	4.12
x2 = 0.1848	2.35	2.56	2.88	3.13	3.63	4.09	4.68	4.75	6.13
x2 = 0.2606	3.91	4.24	4.6	5.13	5.62	6.3	7.13	7.67	8.79
x2 = 0.3459	6.23	6.74	7.16	7.94	8.38	9.29	10.3	11	12.2
x2 = 0.4423	9.4	10	10.6	11.4	12	13.1	14	15.2	16.3
x2 = 0.5523	13.3	14.1	14.8	15.3	16.3	17.5	18.6	19.7	21.1
x2 = 0.679	17.9	18.6	19.3	20.2	21	22	23.2	24.2	25.1
x2 = 0.8264	22.6	23.5	24	24.5	25.6	26.7	27.4	28.7	30

CN1CCN(C2=Nc3cc(Cl)ccc3Nc3ccccc32)CC1 + CC(C)=O + Cc1ccccc1
solubility (g/100 g solution)
Conditions	x2 = 0.1503	x2 = 0.2841	x2 = 0.4047	x2 = 0.5141	x2 = 0.6136	x2 = 0.7038	x2 = 0.7876	x2 = 0.8642	x2 = 0.9343
293.15 K	4.2	5.72	6.98	7.87	8.37	8.49	8.42	8.02	7.41
298.15 K	4.59	6.06	7.92	8.77	9.44	9.83	9.53	9.03	8.42
303.15 K	5.42	7.16	8.86	9.9	10.6	10.7	9.99	9.78	8.81
308.15 K	6.11	8.41	9.86	10.9	11.9	12.3	11.6	11.3	10.4
313.15 K	7.38	9.81	11.5	12.7	13.4	13.6	13.4	12.9	11.9
318.15 K	8.97	11.4	13.2	14.3	15.4	15.3	15.5	14.8	13.4

CC(C)OC(=O)C(C)NP(=O)(OCC1OC(n2ccc(=O)[nH]c2=O)C(C)(F)C1O)Oc1ccccc1 (configuration not stated) + CC(C)=O + O
solubility (g/100 g solution)
Conditions	278.15 K	283.15 K	288.15 K	293.15 K	298.15 K	303.15 K	308.15 K	313.15 K	318.15 K
x2 = 0.03333	0.447	0.659	0.884	1.19	1.57	2.08	2.72	3.52	4.39
x2 = 0.07199	1.86	2.63	3.43	4.47	5.72	7.3	9.16	11.4	13.7
x2 = 0.1174	3.81	5.24	6.7	8.54	10.7	13.3	16.2	19.6	23.1
x2 = 0.1714	5.39	7.25	9.19	11.6	14.2	17.4	21	25.1	29.1
x2 = 0.2368	6.68	8.82	11.1	13.8	16.9	20.4	24.2	28.4	32.6
x2 = 0.3176	8.37	10.8	13.6	16.7	20.2	24	28.1	32.4	36.8
x2 = 0.42	11.2	14.2	17.5	21.1	24.9	28.9	33.3	37.8	42.6
x2 = 0.5538	15	18.1	21.8	26.1	30.7	35.3	40.1	45	49.6
x2 = 0.7363	18.3	22.9	27.4	32.1	37.1	42.2	47	51.8	56.6

S=c1[nH]ncs1 + CC(C)=O + O
solubility (g/100 g solution)
Conditions	278.15 K	283.15 K	288.15 K	293.15 K	298.15 K	303.15 K	308.15 K	313.15 K	318.15 K	323.15 K
x2 = 0.1	1.78	2.36	2.99	3.78	4.76	6	7.45	9.31	11.5	14.2
x2 = 0.2	6.07	7.41	8.84	10.6	12.5	14.8	17.3	20.2	23.6	27.1
x2 = 0.3	11.4	13.3	15.3	17.4	19.6	22.2	24.9	28.1	30.9	34.4
x2 = 0.4	15.7	17.9	20.2	22.5	24.8	27.1	29.6	32.5	35.3	38.5
x2 = 0.5	19.8	21.7	23.7	25.6	27.8	30.3	32.6	34.8	37.3	40.1
x2 = 0.6	22	23.6	25.6	27.3	29.3	31.4	33.2	35.3	37.6	39.8
x2 = 0.7	22.6	24.3	26.2	27.7	29.5	31.4	33.2	35	37.1	39.3
x2 = 0.8	23.1	24.5	25.9	27.4	29.1	30.8	32.5	34	35.7	37.4
x2 = 0.9	21.4	22.6	24.2	25.6	27.2	28.6	30.4	32.1	33.7	35.3

CC(C)=CCCC(C)C1CCC2(C)C3=C(CCC12C)C1(C)CCC(O)C(C)(C)C1CC3 (configuration not stated) + CC(C)O + O
solubility (g/100 g solution)
Conditions	278.15 K	288.15 K	298.15 K	308.15 K	318.15 K
x2 = 0.01234	2.03e-05	2.81e-05	3.2e-05	3.94e-05	5.13e-05
x2 = 0.09088	0.000156	0.000176	0.000221	0.00024	0.000254
x2 = 0.2604	0.0158	0.0209	0.0306	0.0368	0.0456
x2 = 0.6874	0.147	0.272	0.373	0.472	0.64

Cc1[nH]c(=O)c(C#N)cc1-c1ccncc1 + CC(C)O + O
solubility (g/100 g solution)
Conditions	278.15 K	283.15 K	288.15 K	293.15 K	298.15 K	303.15 K	308.15 K	313.15 K	318.15 K	323.15 K
x2 = 0.03225	0.00105	0.00126	0.00148	0.00173	0.00202	0.00231	0.00261	0.00296	0.00333	0.00376
x2 = 0.06974	0.00174	0.00206	0.00243	0.00283	0.0033	0.00374	0.00423	0.00479	0.00537	0.00604
x2 = 0.1139	0.00266	0.00311	0.00366	0.00429	0.00498	0.00565	0.00635	0.00712	0.00801	0.00906
x2 = 0.1666	0.00378	0.00445	0.00523	0.00608	0.00705	0.00798	0.009	0.0102	0.0114	0.0128
x2 = 0.2307	0.00502	0.00587	0.00684	0.00797	0.00927	0.0105	0.0119	0.0135	0.0151	0.017
x2 = 0.3103	0.00629	0.00741	0.00871	0.0101	0.0118	0.0133	0.015	0.0171	0.019	0.0214
x2 = 0.4117	0.00743	0.00875	0.0102	0.0119	0.0137	0.0155	0.0178	0.02	0.0224	0.0256
x2 = 0.5454	0.0083	0.00978	0.0115	0.0135	0.0155	0.0177	0.02	0.0226	0.0256	0.0291
x2 = 0.7297	0.00873	0.0102	0.012	0.0141	0.0163	0.0188	0.0214	0.0243	0.0274	0.0314
